# Assay results taken from patent US20020049157A1, “Use of proteasome inhibitors for treating cancer, inflammation, autoimmune disease, graft rejection and septic shock” (priority 1998, published 2002).
# Key:
# [1] = tested on: Cyclin E; test: Immunoblotting of Cyclin E level in T cells; assay type: cell-based, human
# Protocol: Tonsillar T cells were activated with PHA (2 μg/ml) for a period as indicated in each graph. LAC (10 μM) was added once at 0 h. The cells were harvested at 16 h, 24 h, or 40 h as indicated. An equal amount of lysate protein ([…]) was precipitated with rabbit anti-CDK4, anti-CDK2 or anti-Cyclin E antisera (2.5 μg Ab/sample). The immune complexes were assayed for their kinase activities using histone H1 as a substrate. (A) CDK4 kinase activity. (B) CDK2 kinase activity. (C) Cyclin E-associated CDK activity. The membrane in (C) was subsequently hybridized with anti-Cyclin E (1 μg/ml) followed by ^125I-protein A for the evaluation of the protein level of Cyclin E.
# Tonsillar T cells were stimulated with PHA (2 μg/ml) for 40 h in the presence of hydroxyurea (1 mM), and these cells were blocked at the G1/S boundary (G1 block). The synchronization was released by washing out hydroxyurea, and the cells were recultured in medium containing 2 μg/ml PHA in the absence or presence of LAC ([…], added once at the time of the release). The cells were harvested at 6 h and 22 h post the G1/S block. […]
# Immunoblotting was employed to evaluate the levels of Cyclin E, cyclin A, p21^Cip1 and p27^Kip1. […] The cleared lysates were quantitated for protein concentrations. […] The signals on the membrane were detected by [^125I]-protein A followed by autoradiography.
# [2] = tested on: CD25; test: CD25 (IL-2Rα) upregulation by two-color flow cytometry; assay type: cell-based, human; conditions: PHA; LAC 10 μM added in the beginning of the culture
# Protocol: CD25 expression on T cells was evaluated by anti-CD25-PE/anti-CD3-FITC two-color flow cytometry. Similar results were obtained in two independent experiments, and a representative one is shown. The data are presented as two color histograms in forms of contours, as well as in an overlay histogram.
# In the four systems of T and B cell activation and proliferation studied in the first section, the growth promoting activity of IL-2 is indirectly (for stimulation by PHA, anti-CD3, and anti-CD28 plus ionomycin), or directly (for SAC plus IL-2) involved. We then investigated the role of proteasome in IL-2Rα expression and IL-2 production. […] Under the experimental condition used, the viability of the LAC-treated cell was reasonable (>80% at 40 h) as described in the previous section as LAC was added only once initially. Moreover, no consistent change of IL-2 production in LAC-treated cells was a functional indication that the cell viability was reasonable and is not of a concern in interpreting the data. The results from this section indicate that IL-2Rα upregulation but not IL-2 production is proteasome-dependent, and the suppressed IL-2Rα expression likely contributes to LAC's inhibitory effect on T cells activation and proliferation. The Proteasome Activity is Critically Required Between G0 and G1/S Boundary in T Cells […]
smiles,measurement,setting,value
"CC(=O)N[C@@H](CSC(=O)[C@]1([C@@H](O)C(C)C)NC(=O)[C@H](C)[C@@H]1O)C(=O)O [LAC, lactacystin]",decline of Cyclin E level after the G1/S boundary,"[1]; PHA plus hydroxyurea block, released, LAC added at release, 6 h and 22 h",decline was prevented
same,Cyclin E protein level,"[1]; PHA-activated T cells, LAC added once at 0 h",increased
same,CD25 upregulation in CD3+ T cells,[2],significantly inhibited
